The values that follow come from PMC4645160, “Targeting kinases with anilinopyrimidines: discovery of N-phenyl-N’-[4-(pyrimidin-4-ylamino)phenyl]urea derivatives as selective inhibitors of class III receptor tyrosine kinase subfamily” (Scientific Reports, 2015).

The structures appear in SMILES notation. Where two headings read alike, the source gives them in different places.

Holding throughout (assay type): binding
In one assay the target is T1, FLT3 (Homo sapiens, UniProt P36888).
T1 construct: purchased DiscoverX (KinomeScan service)
T1 sequence (P36888 27-993): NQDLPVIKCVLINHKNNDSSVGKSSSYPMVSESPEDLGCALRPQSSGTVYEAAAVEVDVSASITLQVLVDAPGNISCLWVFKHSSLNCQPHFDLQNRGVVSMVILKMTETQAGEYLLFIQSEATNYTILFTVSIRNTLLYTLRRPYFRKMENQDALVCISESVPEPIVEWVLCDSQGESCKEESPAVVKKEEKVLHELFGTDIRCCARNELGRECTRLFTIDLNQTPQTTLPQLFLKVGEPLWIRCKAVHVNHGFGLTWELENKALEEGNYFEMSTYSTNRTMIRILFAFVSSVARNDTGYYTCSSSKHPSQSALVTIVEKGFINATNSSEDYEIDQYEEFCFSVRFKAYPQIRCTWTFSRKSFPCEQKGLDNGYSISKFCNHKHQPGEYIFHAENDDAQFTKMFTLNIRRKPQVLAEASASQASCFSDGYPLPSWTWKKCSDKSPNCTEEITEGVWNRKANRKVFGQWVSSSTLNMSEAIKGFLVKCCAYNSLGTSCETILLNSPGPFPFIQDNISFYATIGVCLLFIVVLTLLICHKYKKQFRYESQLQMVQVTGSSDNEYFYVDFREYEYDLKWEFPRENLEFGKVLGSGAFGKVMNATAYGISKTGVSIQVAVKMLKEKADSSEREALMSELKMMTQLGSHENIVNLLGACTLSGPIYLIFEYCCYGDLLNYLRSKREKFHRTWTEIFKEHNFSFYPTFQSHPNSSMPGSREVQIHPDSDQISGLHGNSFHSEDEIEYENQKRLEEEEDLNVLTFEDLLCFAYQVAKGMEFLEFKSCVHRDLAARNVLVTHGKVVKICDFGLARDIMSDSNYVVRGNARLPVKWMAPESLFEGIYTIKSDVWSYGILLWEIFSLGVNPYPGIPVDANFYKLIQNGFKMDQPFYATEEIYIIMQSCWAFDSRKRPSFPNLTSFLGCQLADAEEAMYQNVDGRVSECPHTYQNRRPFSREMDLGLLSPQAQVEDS
The experiment in a line: KinomeScan Kd determination, FLT3. As to conditions: for KdRTK/KdKIT, FLT3: Kd FLT3 over Kd KIT; for Kd: KinomeScan. On the procedure:
(§1) The compounds were evaluated using the KinomeScan™ platform (http://www.discoverx.com/services/drug-discovery-development-services/kinase-profiling/kinomescan), that measures the ability of the test compound to disrupt the complex between a high affinity ATP-mimic probe immobilized on a solid support and the kinase of interest. The KinomeScan is a very helpful technology for the fast and reliable screening of a number of compounds against a wide and customizable panel of kinases. Besides, it is not based on the use of hazardous radioactive ^32P-ATP and has a very low rate of false positive (<1%)[44]. The screening platform outputs a “Percent of Control” (POC) value, statistically correlated to the dissociation constant (Kd) value (http://www.discoverx.com/tools-resources/leadhunter-study-reports-data-analysis), for each pair of kinase/ligand. The POC is calculated as reported in equation (1): […]
(§2) The ability of compounds 19 and 27 to bind the class III RTK members was measured (Table 2; see also Figs S3 and S4 for dose/response curves).
(§3) Figure S3. Dose/response curve for compound 19 against tested kinases for Kd determination. The amount of kinase measured by qPCR (Signal; y-axis) is plotted against the corresponding compound concentration in nM in log10 scale (x-axis). Data points marked with an "x" were not used for Kd determination.
(§4) (1 picture or pasted object on this page, not shown here)
(§5) Figure S4. Dose/response curve for compound 27 against tested kinases for Kd

The next assay has as its target T2, PDGFRα (Homo sapiens, UniProt P16234).
T2 construct: purchased DiscoverX (KinomeScan service)
The experiment in a line: KinomeScan Kd determination, PDGFRα. As to conditions: for KdRTK/KdKIT, PDGFRα: Kd PDGFRα over Kd KIT; for Kd: KinomeScan. How it is done:
as §1, §2, §3, §4, §5

The next assay addresses T3, PDGFRβ (Homo sapiens, UniProt P09619).
T3 construct: purchased DiscoverX (KinomeScan service)
Kind of assay: KinomeScan Kd determination, PDGFRβ. As to conditions: for KdRTK/KdKIT, PDGFRβ: Kd PDGFRβ over Kd KIT; for Kd: KinomeScan. On the procedure:
as §1, §2, §3, §4, §5

T2 sequence (P16234 24-1089): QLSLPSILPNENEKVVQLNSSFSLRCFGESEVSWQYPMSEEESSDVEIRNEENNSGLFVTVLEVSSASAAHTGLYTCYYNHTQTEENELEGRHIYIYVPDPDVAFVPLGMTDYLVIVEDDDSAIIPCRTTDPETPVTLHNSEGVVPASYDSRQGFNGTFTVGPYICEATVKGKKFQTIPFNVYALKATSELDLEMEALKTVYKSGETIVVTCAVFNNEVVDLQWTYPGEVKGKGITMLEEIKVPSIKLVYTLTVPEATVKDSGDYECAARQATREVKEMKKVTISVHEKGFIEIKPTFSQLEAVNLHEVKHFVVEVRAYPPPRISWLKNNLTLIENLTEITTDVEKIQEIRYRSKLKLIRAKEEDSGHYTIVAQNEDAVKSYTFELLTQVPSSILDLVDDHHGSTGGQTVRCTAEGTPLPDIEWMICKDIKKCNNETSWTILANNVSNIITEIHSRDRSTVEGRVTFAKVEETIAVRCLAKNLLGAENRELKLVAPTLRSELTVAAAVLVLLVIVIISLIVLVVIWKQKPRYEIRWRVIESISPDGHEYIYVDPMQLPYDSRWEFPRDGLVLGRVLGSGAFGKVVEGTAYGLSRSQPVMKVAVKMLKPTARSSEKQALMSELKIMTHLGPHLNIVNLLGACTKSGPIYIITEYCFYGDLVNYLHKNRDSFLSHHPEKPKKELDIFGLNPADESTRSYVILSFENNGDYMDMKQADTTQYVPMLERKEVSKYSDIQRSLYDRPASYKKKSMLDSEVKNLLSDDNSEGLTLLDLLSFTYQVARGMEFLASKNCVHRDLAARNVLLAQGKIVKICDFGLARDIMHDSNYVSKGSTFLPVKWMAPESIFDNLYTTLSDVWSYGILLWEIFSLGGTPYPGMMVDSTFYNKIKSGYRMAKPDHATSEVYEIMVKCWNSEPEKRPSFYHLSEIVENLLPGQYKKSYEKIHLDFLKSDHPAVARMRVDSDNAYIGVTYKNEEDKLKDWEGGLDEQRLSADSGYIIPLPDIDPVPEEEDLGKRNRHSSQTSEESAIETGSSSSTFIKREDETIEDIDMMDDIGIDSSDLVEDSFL
T3 sequence (P09619 33-1106): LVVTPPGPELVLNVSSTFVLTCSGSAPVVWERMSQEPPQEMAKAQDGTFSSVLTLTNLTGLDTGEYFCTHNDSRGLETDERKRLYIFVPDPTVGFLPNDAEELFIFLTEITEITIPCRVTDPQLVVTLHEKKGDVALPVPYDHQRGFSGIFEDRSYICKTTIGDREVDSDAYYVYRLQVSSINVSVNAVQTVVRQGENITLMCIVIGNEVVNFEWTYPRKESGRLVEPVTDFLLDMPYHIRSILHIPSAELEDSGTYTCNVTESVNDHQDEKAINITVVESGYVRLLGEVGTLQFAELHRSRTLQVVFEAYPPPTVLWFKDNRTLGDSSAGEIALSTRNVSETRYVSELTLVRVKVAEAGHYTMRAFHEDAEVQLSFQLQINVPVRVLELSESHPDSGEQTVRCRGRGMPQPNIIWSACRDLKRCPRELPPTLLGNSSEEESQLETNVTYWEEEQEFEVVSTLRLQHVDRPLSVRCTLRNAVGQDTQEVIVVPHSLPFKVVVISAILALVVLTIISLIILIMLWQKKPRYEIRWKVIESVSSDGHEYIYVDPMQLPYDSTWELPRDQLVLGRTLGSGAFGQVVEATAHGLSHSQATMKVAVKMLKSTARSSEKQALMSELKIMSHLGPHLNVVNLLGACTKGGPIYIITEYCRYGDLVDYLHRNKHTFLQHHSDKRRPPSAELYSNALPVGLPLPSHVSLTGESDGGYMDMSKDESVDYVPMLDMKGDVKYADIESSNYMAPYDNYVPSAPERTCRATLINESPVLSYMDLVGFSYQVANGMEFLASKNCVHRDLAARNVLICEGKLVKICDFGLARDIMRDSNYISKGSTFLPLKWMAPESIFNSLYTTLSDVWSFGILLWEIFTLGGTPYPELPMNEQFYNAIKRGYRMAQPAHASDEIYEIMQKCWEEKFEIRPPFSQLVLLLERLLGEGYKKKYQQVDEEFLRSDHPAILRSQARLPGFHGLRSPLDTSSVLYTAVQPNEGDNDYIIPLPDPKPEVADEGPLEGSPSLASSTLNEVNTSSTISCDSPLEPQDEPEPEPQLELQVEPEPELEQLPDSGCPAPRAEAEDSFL

On to `O=C(CN1CCOCC1)Nc1cccc(-c2cc(Nc3ccc(NC(=O)Nc4ccccc4)cc3)ncn2)c1` [Compound 27], for which the “Potency improvement Kd19/Kd27, FLT3” value at FLT3 (27 versus 19) is given as 3.5. In addition, the “KdRTK/KdKIT, FLT3” value on FLT3 was found to be 130. Moreover, the Kd is above 1000 nM on FLT3 (bound stated, read-out: Kd against FLT3); 1300 nM on FLT3 (read-out: Kd (nM) FLT3); 110 nM at PDGFRα; 70 nM at PDGFRβ. Further, on PDGFRα (27 versus 19), the “Potency improvement Kd19/Kd27, PDGFRα” value is on record as 8.7. Moreover, the “KdRTK/KdKIT, PDGFRα” value at PDGFRα stood at 11. In addition, on PDGFRβ (27 versus 19), the “Potency improvement Kd19/Kd27, PDGFRβ” value is given as 1.1. Further, the “KdRTK/KdKIT, PDGFRβ” value at PDGFRβ was 7.
With `O=C(Nc1ccccc1)Nc1ccc(Nc2cc(-c3ccccc3)ncn2)cc1` [Compound 19], the “KdRTK/KdKIT, FLT3” value at FLT3 is 209. Besides, on FLT3 (read-out: Kd (nM) FLT3), the Kd was found to be 4600 nM. Further, on PDGFRα, the “KdRTK/KdKIT, PDGFRα” value amounted to 44 and the Kd is 960 nM. Besides, on PDGFRβ, the “KdRTK/KdKIT, PDGFRβ” value is listed as 4 and the Kd was 80 nM.
